From ChEMBL document CHEMBL4673329, “Polyketides from the marine-derived fungus Aspergillus falconensis: In silico and in vitro cytotoxicity studies” (Bioorg Med Chem, 2021)
Calls of active or inactive are those of the source. The calls are words filed in the database; no cut-off is given here.

Legend:
Format in all cases: functional, cell-based
MDA-MB-231 [1] = experiment: Cytotoxicity against human MDA-MB-231 cells assessed as reduction in cell viability upto 100 uM incubated for 24 hrs by MTT assay; conditions: dose microM <=100, time 24.0 hrs
L5178Y = experiment: Cytotoxicity against mouse L5178Y cells assessed as reduction in cell viability incubated for 24 hrs by MTT assay
MDA-MB-231 [2] = experiment: Inhibition of cell migration in human MDA-MB-231 at 70 uM incubated for 24 hrs by scratch wound healing assay

SMILES	Activity (MDA-MB-231 [1])	IC50 (L5178Y) [µM]	inhibition (MDA-MB-231 [2])
COC(=O)c1cc(O)cc(OC)c1C(=O)c1c(O)cc(C)cc1O [SULOCHRIN]	inactive	5.1	Active
COC(=O)c1cc(O)cc(OC)c1C(=O)c1c(O)cc(C)c(Cl)c1O	inactive	–	–
